# Source: patent publication US20070037828A1, “Pyrazolopyrimidines” (priority 2003, published 2007)
# Assay: logP determination through HPLC (EEC directive 79/831 Annex V. A8)
# Assay type: physicochemical
# Conditions: not given
row,logP,SMILES
1,3.29,CC(Nc1c(-c2ncncc2F)c(Cl)nc2c(C#N)cnn12)C(C)(C)C (stereo not shown) [Example 56]
2,3.90,CN(CCC#N)c1c(-c2cc(Cl)sc2Cl)c(Cl)nc2c(C#N)cnn12 [Example 19]
3,4.46,"CC(Nc1c(-c2cc(Cl)sc2Cl)c(Cl)nc2c(C#N)cnn12)C(F)(F)F (single isomer, unassigned) [Example 31]"
4,2.46,"CC(Nc1c(-c2ncncc2Cl)c(Cl)nc2c(C=O)cnn12)C(F)(F)F (single isomer, unassigned) [Example 55]"
5,5.31,CC(C)CN(C)c1c(-c2cc(Cl)sc2Cl)c(Cl)nc2c(C#N)cnn12 [Example 12]
6,4.82,CCC(C)Nc1c(-c2cc(Cl)sc2Cl)c(Cl)nc2c(C#N)cnn12 (stereo not shown) [Example 10]
7,3.54,CC(Nc1c(-c2ncncc2Cl)c(Cl)nc2c(C#N)cnn12)C(C)(C)C (stereo not shown) [Example 3]
8,4.41,CC(C)Nc1c(-c2cc(Cl)sc2Cl)c(Cl)nc2c(C#N)cnn12 [Example 11]
9,4.11,CC(Nc1c(-c2ncncc2F)c(Cl)nc2c(Cl)cnn12)C(C)(C)C (stereo not shown) [Example 59]
10,5.19,CC(C)C(C)Nc1c(-c2cc(Cl)sc2Cl)c(Cl)nc2c(C#N)cnn12 (stereo not shown) [Example 24]
11,4.03,N#Cc1cnn2c(N3CCC(C(F)(F)F)CC3)c(-c3ccsc3)c(Cl)nc12 [Example 53]
12,2.92,CC(C)C(C)Nc1c(-c2ncncc2F)c(Cl)nc2c(C#N)cnn12 (stereo not shown) [Example 57]
13,3.13,CC(C)C(C)Nc1c(-c2ncncc2Cl)c(Cl)nc2c(C#N)cnn12 (stereo not shown) [Example 4]
14,2.98,CC(C)C(C)Nc1c(-c2ncncc2F)c(Cl)nc2ccnn12 (stereo not shown) [Example 61]
15,5.78,CCCN(CC1CC1)c1c(-c2cc(Cl)sc2Cl)c(Cl)nc2c(C#N)cnn12 [Example 20]
16,3.42,CC(Nc1c(-c2ncncc2F)c(Cl)nc2ccnn12)C(C)(C)C (stereo not shown) [Example 60]
17,3.15,COC(=O)c1cnn2c(NC(C)C(C)(C)C)c(-c3ncncc3F)c(Cl)nc12 (stereo not shown) [Example 64]

row,logP,SMILES
1,3.61,N#Cc1cnn2c(N3CCC(F)(F)CC3)c(-c3ccsc3)c(Cl)nc12 [Example 36]
2,3.85,N#Cc1cnn2c(N3CCOCC3)c(-c3cc(Cl)sc3Cl)c(Cl)nc12 [Example 28]
3,5.31,CC(C)(C)CNc1c(-c2cc(Cl)sc2Cl)c(Cl)nc2c(C#N)cnn12 [Example 15]
4,5.59,CC(C)CC(C)Nc1c(-c2cc(Cl)sc2Cl)c(Cl)nc2c(C#N)cnn12 (stereo not shown) [Example 29]
5,4.72,CC1CN(c2c(-c3cc(Cl)sc3Cl)c(Cl)nc3c(C#N)cnn23)CC(C)O1 (stereo not shown) [Example 27]
6,4.61,N#Cc1cnn2c(N3CCCC3)c(-c3cc(Cl)sc3Cl)c(Cl)nc12 [Example 21]
7,4.06,N#Cc1cnn2c(NCC(F)(F)F)c(-c3cc(Cl)sc3Cl)c(Cl)nc12 [Example 30]
8,3.20,CC1CCN(c2c(-c3ncncc3F)c(Cl)nc3c(C#N)cnn23)CC1 [Example 63]
9,4.36,CC(Nc1c(-c2ncncc2Cl)c(Cl)nc2c(Cl)cnn12)C(C)(C)C (stereo not shown) [Example 5]
10,2.65,CC(Nc1c(-c2ncncc2F)c(Cl)nc2c(C#N)cnn12)C(F)(F)F (stereo not shown) [Example 58]
11,4.82,CC(C)CNc1c(-c2cc(Cl)sc2Cl)c(Cl)nc2c(C#N)cnn12 [Example 9]
12,2.44,CC1CCCN1c1c(-c2ncncc2Cl)c(Cl)nc2c(C=O)cnn12 (stereo not shown) [Example 54]
13,4.32,COCCN(C)c1c(-c2cc(Cl)sc2Cl)c(Cl)nc2c(C#N)cnn12 [Example 18]
14,3.90,COCCNc1c(-c2cc(Cl)sc2Cl)c(Cl)nc2c(C#N)cnn12 [Example 17]
15,6.19,N#Cc1cnn2c(N3CCCCC3)c(-c3cc(Cl)sc3Cl)c(Cl)nc12 [Example 23]
16,3.12,CC(Nc1c(-c2ncncc2Cl)c(Cl)nc2c(C=O)cnn12)C(C)(C)C (stereo not shown) [Example 62]

# Same assay, conditions: HPLC, gradient method, acetonitrile/0.1% aqueous phosphoric acid
logP,chromatographic logP,SMILES
4.51,–,CCCN(CC1CC1)c1c(-c2ccsc2)c(Cl)nc2c(C#N)cnn12 [Example 47]
–,3.04,"CC1CCN(c2c(-c3ncncc3Cl)c(Cl)nc3c(C=O)cnn23)CC1 [Example 74, 5-chloro-6-(5-chloro-pyrimidin-4-yl)-3-formyl-7-(4-methyl-piperidin-1-yl)-pyrazolo[1,5-a]-pyrimidine]"
–,4.7,C=Cc1cnn2c(N3CCC(C)CC3)c(-c3ncncc3Cl)c(Cl)nc12 [Example 75]
–,0.29,"N#Cc1cnn2c(O)c(-c3ncccc3C(F)(F)F)c(O)nc12 [Example 68, 3-cyano-6-(3-trifluoromethyl-pyridin-2-yl)-pyrazolo[1,5-a]pyrimidin-5,7-diol]"
3.53,–,N#Cc1cnn2c(N3CCCC3)c(-c3ccsc3)c(Cl)nc12 [Example 41]
2.94,–,COCCNc1c(-c2ccsc2)c(Cl)nc2c(C#N)cnn12 [Example 45]
2.98,–,CCN(CCC#N)c1c(-c2ccsc2)c(Cl)nc2c(C#N)cnn12 [Example 52]
–,2.68,"N#Cc1cnn2c(Cl)c(-c3ncccc3C(F)(F)F)c(Cl)nc12 [Example 65, 3-cyano-5,7-dichloro-6-(3-trifluoromethyl-pyridin-2-yl)-pyrazolo-[1,5-a]pyrimidine]"
3.58,–,N#Cc1cnn2c(N3CCCCC3)c(-c3ccsc3)c(Cl)nc12 [Example 49]
4.41,–,CC1CCN(c2c(-c3ccsc3)c(Cl)nc3c(C#N)cnn23)CC1 [Example 43]
3.74,–,CCC(C)Nc1c(-c2ccsc2)c(Cl)nc2c(C#N)cnn12 (stereo not shown) [Example 38]
3.00,–,N#Cc1cnn2c(NC3CCCC3)c(-c3ccsc3)c(Cl)nc12 [Example 33]
3.53,–,CC1CN(c2c(-c3ccsc3)c(Cl)nc3c(C#N)cnn23)CC(C)O1 (stereo not shown) [Example 48]
4.27,–,CC1CCCCN1c1c(-c2ccsc2)c(Cl)nc2c(C#N)cnn12 (stereo not shown) [Example 42]
4.18,–,CC(C)(C)CNc1c(-c2ccsc2)c(Cl)nc2c(C#N)cnn12 [Example 32]
4.46,–,CC(C)CC(C)Nc1c(-c2ccsc2)c(Cl)nc2c(C#N)cnn12 (stereo not shown) [Example 6]
3.37,–,CC(C)Nc1c(-c2ccsc2)c(Cl)nc2c(C#N)cnn12 [Example 39]
4.08,–,CC(C)C(C)Nc1c(-c2ccsc2)c(Cl)nc2c(C#N)cnn12 (stereo not shown) [Example 34]
3.17,–,COCCN(C)c1c(-c2ccsc2)c(Cl)nc2c(C#N)cnn12 [Example 51]
3.78,–,CC(C)CNc1c(-c2ccsc2)c(Cl)nc2c(C#N)cnn12 [Example 37]
2.90,–,N#Cc1cnn2c(N3CCOCC3)c(-c3ccsc3)c(Cl)nc12 [Example 44]
3.21,–,N#Cc1cnn2c(NCC(F)(F)F)c(-c3ccsc3)c(Cl)nc12 [Example 8]
4.13,–,CC(C)CN(C)c1c(-c2ccsc2)c(Cl)nc2c(C#N)cnn12 [Example 40]

SMILES,logP,chromatographic logP
N#Cc1cnn2c(NC3CCCC3)c(-c3cc(Cl)sc3Cl)c(Cl)nc12 [Example 16],5.03,–
CC(Nc1c(-c2ccsc2)c(Cl)nc2c(C#N)cnn12)C(F)(F)F (stereo not shown) [Example 7],3.53,–
